Source: paper PMC11096398, “Chemical and biophysical characterization of novel potassium channel blocker 3-fluoro-5-methylpyridin-4-amine” (Scientific Reports, 2024)
Values joined by “and” are separate entries in the source; they are usually repeats but may differ in a detail not shown here. Identical values can stand only once. Like-named read-outs stand apart in the source and are kept apart here.

Tests used:
CYP2E1 = CYP2E1 (Homo sapiens, UniProt P05181); assay: in vitro
Description: The relative metabolic stability towards CYP2E1 was assessed with the competitive CYP2E1 inhibition assay utilizing the life technologies™ vivid® CYP2E1 screening kit, as described in previous studies. In this assay, fluorescence emitted by the metabolic product of a specific CYP2E1 substrate included in the kit, was measured in the absence and presence of substrate competitors.
Afterwards, 50 µL master pre-mix 2× (40 nM) CYP2E1 BACULOSOMES® and 2× (0.6 units/mL) vivid® regeneration system in 1× reaction buffer) was added to each well. The plate was incubated for 10 min at room temperature to allow the compounds to interact with the CYP2E1 in the absence of enzyme turnover. Next, the reaction was initiated by adding 10 µL per well of 10× (100 μM) Vivid® substrate (2H-1-benzopyran-3-carbonitrile,7-(ethoxy-methoxy)-2-oxo-(9Cl)) and 10× (300 μM) Vivid® NADP^+ mixture. Immediately (in less than 2 min), the plate was transferred into the fluorescent plate reader and fluorescence was monitored over 60 min (reads in 1 min intervals) at 415 nm as excitation wavelength and 460 nm as emission wavelength. The obtained reads were plotted using GraphPad Prism 9.
A similar vivid® CYP2E1 assay was conducted as described above. […] The plate fluorescence was monitored over 60 min (reads in 1 min intervals) at 415 nm as excitation wavelength and 460 nm as emission wavelength. The reads at 60 min (recalculated by the linear trend line equation) of each concentration were used and fitted with GraphPad Prism9 dose-response-inhibition (concentration is log) curve fitting with weighting method (weighted by 1/Y^2) to calculate the IC50 values. A similar procedure was used for determining the IC50 of 3F4AP.

[1] = octanol-water partition coefficient (logD) at pH 7.4; assay type: physicochemical
Description: The octanol–water partition coefficient (logD) at pH 7.4 was determined according to our previous reported protocol. Briefly, PBS (900 μL), 1-octanol (900 μL), and a 10 mg/ mL aqueous solution of each compound (2 μL) were added to a 2 mL HPLC vial. The compounds were partitioned between the layers via vortexing and centrifuged at 1000 g for 1 min to allow for phase separation. A 10 μL portion was taken from each layer (autoinjector was set up to draw volume at two different heights) and analyzed by HPLC. The relative concentration in each phase was determined by integrating the area under each peak and comparing the ratio of the areas from the octanol and aqueous layers. A calibration curve was performed to ensure that the concentrations detected were within the linear range of the detector (see Figs. S1 and S2 in Supporting Information). This procedure was repeated four times for each compound.

[2] = pKa determination by titration with HCl (Gran plot); assay type: physicochemical; details: n = 4
Description: The pKa was determined using titration according to our previously described protocol. A 1 mg/mL solution of 5Me3F4AP was prepared, of which 5 ml was titrated with 0.01 M HCl solution beyond the equivalence point. After each incremental addition of titrant, the sample was stirred and the pH reading was taken with a pH meter. The Gran plot of the titration was analyzed to obtain the pKa (see the plot in Supporting Information, Fig. S3). […] The titration was repeated four times each for each compound.

[3] = target: T1, Shaker voltage-gated potassium channel (Drosophila melanogaster, UniProt P08510); assay: cut-open voltage clamp electrophysiology of K+ currents in Xenopus laevis oocytes expressing Shaker; assay type: cell-based, D. melanogaster
Description: Blocking potency of 5Me3F4AP was evaluated on the voltage-gated Shaker (homologous to mammalian Kv1.2) ion channel expressed in Xenopus laevis oocytes, as previously described. Briefly, each oocyte expressing the Shaker channel was voltage-clamped in a cut-open voltage clamp (COVC) station in order to elicit K^+ currents in response to the voltage stimulus protocol, which entailed steps of 50 ms from − 100 to 60 mV in increments of 10 mV. For COVC measurements, the external recording solution was composed (in mM) of 12 KOH, 2 Ca(OH)2, 105 NMDG-MES (N-methyl-D-glucamine)-methylsufonate, 20 HEPES (4-(2-hydroxyethyl)-1-piperazineethanesulfonic acid). The internal recording solution was composed of 120 KOH, 2 EGTA (ethylene glycol-bis(β-aminoethyl ether)-N,N,N,N-tetraacetic acid), and 20 HEPES. […] Each pH solution was adjusted with MES (2-(N-morpholino)ethanesulfonic acid). For measurements at pH = 9.1, HEPES was substituted by CHES (2-(cyclohexylamino)-ethanesulfonic acid). Each oocyte expressing the Shaker ion channel was voltage-clamped to record K^+ currents, first in the absence of 5Me3F4AP, and subsequently with the addition of 5Me3F4AP, from 0.0001 to 10 mM. Relative current (Irel) was quantified as the […] of the indicated concentration of 5Me3F4AP. Finally, K^+ currents were amplified with the oocyte clamp amplifier CA-1A (Dagan Corporation, Minneapolis, MN, USA) and digitized with the USB-1604-HS-2AO Multifunction Card (Measurement Computing, Norton, MA, USA). All systems were controlled with the GpatchMC64 program (department of anesthesiology, UCLA, Los Angeles, CA, USA) via a PC. Electrophysiology recordings were sampled at 100 kHz and filtered at 10 kHz.
Data analysis was performed as previously described. Briefly, the half-maximal inhibitory concentration of 5Me3F4AP (IC50) was determined by fitting the Irel curve to the Hill equation at each value of V and pH.
Mean values of data ± standard deviation (s.d.) are given or plotted and the number of experiments is denoted by n. Upper and lower limits of the 95% of confidence interval (CI95) are denoted as 10^logIC50+s.d and 10^logIC50-s.d , respectively.

[4] = parallel artificial membrane permeability assay-blood-brain barrier (BBB) kit; assay type: in vitro ADME; details: PAMPA-BBB; for Papp at 18 h, 500 µM: PBS pH 7.2, 18 h, n = 3, read-out: permeability to an artificial brain membrane (Pe)
Description: The permeability rates of 5Me3F4AP and derivatives were determined using parallel artificial membrane permeability assay-blood–brain barrier (BBB) kit (BioAssay systems, Hayward, USA) following the manufacturer’s protocol. Initially, solutions of each test compound were prepared in DMSO at a concentration of 10 mM. These stock solutions along with the stock solutions of control compounds (high control: promazine hydrochloride, low control: diclofenac) were then diluted with PBS (pH = 7.2) to obtain the donor solutions with a final concentration of 500 μM. At the same time, 200 μM of equilibrium standards for each compound and a DMSO blank control solution were prepared.
In the experimental setup, 300 μL of PBS was added to the desired well of the acceptor plate, and 5 μL of BBB lipid solution in dodecane was added to membranes of the donor plate. Next, 200 μL of the donor solutions of each test compound and each permeability control were added to the duplicate wells of the donor plate. The donor plate was carefully placed on the acceptor plate and incubator for 18 h at room temperature. After incubation, UV absorption measurements were conducted using 100 μL of the resulting solutions from the acceptor plate and the equilibrium standards. UV absorption of the controls was measured by running a UV scan in the range of 200–500 nm. UV absorption of 5Me3F4AP and derivatives was measured using HPLC equipped with a UV detector and C18 column.

[5] = target: T1, Shaker voltage-gated potassium channel; details: cited from earlier work; for IC50: pH 7.4, Hermann equation, reported previously ref 35, read-out: IC50 (at V=0) ± s.d.; for δ ± s.d. (electric fraction): pH 7.4, reported previously ref 35
[6] = cited from earlier work
[7] = design: method as in PMID 38690718; details: 35 min post-injection, cited from earlier work
[8] = cited from earlier work; remark: listed apart in the source
[9] = design: method as in PMID 33090071; details: monkeys, 2 h post injection ref 26; cited from earlier work
[10] = cited from earlier work; remark: listed apart in the source
[11] = final concentration 25 µM, 60 min kinetic measurement
[12] = compound solution titrated with 0.01 M HCl

Chain of CYP2E1 (P05181 whole entry): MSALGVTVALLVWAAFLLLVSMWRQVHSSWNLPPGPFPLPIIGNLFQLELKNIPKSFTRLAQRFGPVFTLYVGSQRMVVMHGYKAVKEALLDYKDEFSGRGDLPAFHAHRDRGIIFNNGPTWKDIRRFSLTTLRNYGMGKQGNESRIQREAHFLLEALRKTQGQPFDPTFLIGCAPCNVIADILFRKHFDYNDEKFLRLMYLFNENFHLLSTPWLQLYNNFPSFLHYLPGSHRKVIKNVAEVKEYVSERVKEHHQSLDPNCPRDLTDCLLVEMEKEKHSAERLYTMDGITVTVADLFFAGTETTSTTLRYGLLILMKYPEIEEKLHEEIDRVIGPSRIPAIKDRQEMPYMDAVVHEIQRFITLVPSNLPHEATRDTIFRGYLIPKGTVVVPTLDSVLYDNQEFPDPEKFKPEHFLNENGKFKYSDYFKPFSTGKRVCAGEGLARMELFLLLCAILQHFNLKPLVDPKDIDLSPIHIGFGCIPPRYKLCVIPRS
T1 sequence (P08510 whole entry): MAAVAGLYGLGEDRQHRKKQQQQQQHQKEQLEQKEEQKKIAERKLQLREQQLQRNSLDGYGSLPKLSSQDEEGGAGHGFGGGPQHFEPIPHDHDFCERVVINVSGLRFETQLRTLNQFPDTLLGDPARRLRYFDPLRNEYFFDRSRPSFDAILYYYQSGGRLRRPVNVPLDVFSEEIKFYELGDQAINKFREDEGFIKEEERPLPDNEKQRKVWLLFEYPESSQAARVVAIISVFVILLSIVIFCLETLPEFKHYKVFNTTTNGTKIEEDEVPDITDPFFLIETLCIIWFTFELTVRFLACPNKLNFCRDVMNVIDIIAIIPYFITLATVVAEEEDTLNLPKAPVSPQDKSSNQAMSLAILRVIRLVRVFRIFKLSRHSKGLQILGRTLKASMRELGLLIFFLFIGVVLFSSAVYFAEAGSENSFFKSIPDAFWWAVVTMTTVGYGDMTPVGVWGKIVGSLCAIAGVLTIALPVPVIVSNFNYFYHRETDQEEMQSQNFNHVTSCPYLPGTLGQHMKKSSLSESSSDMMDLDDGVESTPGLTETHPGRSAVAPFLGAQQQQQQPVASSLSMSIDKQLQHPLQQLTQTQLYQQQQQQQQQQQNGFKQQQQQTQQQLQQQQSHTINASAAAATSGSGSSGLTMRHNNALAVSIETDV

Row | Structure (SMILES) | pKa [2] | δ ± s.d. (electric fraction) ([3]; pH 9.1) | reduction in fluorogenic emission / reaction rate vs. blank (CYP2E1; [11]) | Papp at 18 h, 500 µM [4] [×10⁻⁶ cm/s] | change of IC50 when pH was increased to 9.1 [3] | δ ± s.d. (electric fraction) [3] | IC50 ([3]; IC50 (at V=0) ± s.d.) | IC50 [5] [µM] | δ ± s.d. (electric fraction) [5] | pKa [2, 12] | further results
1 | N[C@@H]1C[C@H]1c1ccccc1 (racemic) [tranylcypromine] |  |  |  |  |  |  |  |  |  |  | reduction in fluorogenic emission / reaction rate vs. blank (CYP2E1): most pronounced reduction in fluorogenic emission
2 | Cc1cncc(F)c1N [5Me3F4AP, 3-fluoro-5-methylpyridin-4-amine] | 7.46 ± 0.01 | 0.40 ± 0.04 | reaction rate between 4AP and 3F4AP | 8.81 ± 1.83 |  |  |  |  |  |  | logD ([1]; 1-octanol/PBS, pH 7.4, pH 7.4, n = 4): 0.664 ± 0.005; logD (octanol/water partition coefficient) ([1]; pH 7.4, n = 4): 0.66; block of Shaker K+ currents ([3]; 1 mM, pH 6.4, 7.4 and 9.1): efficiently blocks the channels; Hill parameter h ([3]; Hill fit at 40 mV, all experimental conditions): ≈ 1; change of IC50 when pH was increased to 9.1 ([3]; IC50 at 40 mV, Hill equation): increased around three-fold; δ ± s.d. (electric fraction) ([3]; pH 6.4): 0.39 ± 0.04; IC50 ([3]; pH 6.4, Hermann equation, read-out: IC50 (at V=0) ± s.d.): 118 ± 17 µM; δ ± s.d. (electric fraction) ([3]; pH 7.4): 0.40 ± 0.02; IC50 ([3]; pH 7.4, Hermann equation, read-out: IC50 (at V=0) ± s.d.): 161 ± 25 µM; blocking potency compared with related compounds ([3]; pH 7.4, IC50 at 40 mV): very similar to that of 4AP and 3F4AP; IC50 ([3]; pH 9.1, Hermann equation, read-out: IC50 (at V=0) ± s.d.): 373 ± 84 µM; δ value (electric fraction) ([3]; pH not specified): ~0.4; IC50 at 60 min (CYP2E1; human, recombinant CYP2E1 BACULOSOMES (Vivid CYP2E1 screening kit), IC50 for CYP2E1 inhibition, reads at 60 min, three replicates): 36.2 ± 2.5 µM; CYP2E1-mediated oxidation rate relative to 3F4AP (CYP2E1; kinetic measurement): about two times slower than 3F4AP; permeation rate relative to 3F4AP [4]: approximately three times faster than 3F4AP
3 | Nc1ccncc1F [3F4AP, 3-fluoro-4-aminopyridine] | 7.37 ± 0.07 | 0.52 ± 0.02 | substantial decrease in rate | 3.11 ± 0.29 | increased around three-fold | 0.41 ± 0.03 | 159 µM and 65 µM | 122 ± 4 | 0.46 ± 0.10 |  | IC50 (CYP2E1; human, IC50 for CYP2E1 inhibition, reads at 60 min, three replicates): 15.4 ± 5.1 µM
4 | Cc1cnccc1N [3Me4AP, 3-methyl-4AP] |  | 0.47 ± 0.03 |  |  | three-fold | 0.28 ± 0.10 | 44 µM and 10 µM | 21 ± 1 | 0.43 ± 0.10 | > 9 | 
5 | Nc1ccncc1[18F] [[^18F]3F4AP, [^18F]3-fluoro-4-aminopyridine] |  |  |  |  |  |  |  |  |  |  | logD [6]: 0.41; plasma parent fraction (PPF) ([7]; anesthetized mice (isoflurane), n = 10 ref 29): 74.8 ± 1.6; plasma parent fraction (PPF) ([7]; awake mice, n = 11 ref 29): 17.7 ± 1.7; plasma parent fraction (PPF) remaining ([8]; humans, 30 min post injection ref 27): < 50%; plasma parent fraction (PPF) [9]: > 90%; pKa [10]: 7.65
6 | Nc1ccncc1 [4AP, 4-aminopyridine] |  | 0.41 ± 0.05 | minor reduction in fluorogenic emission |  |  | 0.41 ± 0.06 |  |  | 0.41 ± 0.08 | > 9 | pKa ([2]; solution of the compound titrated with 0.01 M HCl): 9.19; parent fraction in plasma ([8]; 24 h post oral administration ref 42): ~ 70%
